Key:
human GLP-IR [1] = target: T1, human GLP-IR (Homo sapiens, UniProt P43220); test: GLP1 activity | EC50 (pM)
Excerpt: Table printed on a drawing sheet, FIG. 1A
Head of the field: GLP1 activity | EC50 (pM)
The patent's description of the figure: FIG. 1A-1B: Synthetic Peptides (FIG. 1A discloses SEQ ID NOS 3948 and 3275-3298 and FIG. 1B discloses SEQ ID NOS 3948 and 3299-3302, all respectively, in order of appearance)
First copying reader's note: The first head row prints a reference sequence (residues at positions 7-35) above the position numbers; two fully empty rows separate groups of peptides.
Where the first naming reader finds the target: passage: CHOK1 cells stably expressing the human GLP-IR were used to measure peptide or recombinant fusion-induced cAMP production

human GLP-IR [2] = target: T1, human GLP-IR; test: GLP1 activity | EC50 (M)
Excerpt: Table printed on a drawing sheet, FIG. 1A Head of the field: GLP1 activity | EC50 (M) The patent's description of the figure: FIG. 1A-1B: Synthetic Peptides (FIG. 1A discloses SEQ ID NOS 3948 and 3275-3298 and FIG. 1B discloses SEQ ID NOS 3948 and 3299-3302, all respectively, in order of appearance) First copying reader's note: The first head row prints a reference sequence (residues at positions 7-35) above the position numbers; two fully empty rows separate groups of peptides. Where the first naming reader finds the target: passage: CHOK1 cells stably expressing the human GLP-IR were used to measure peptide or recombinant fusion-induced cAMP production

T1 sequence (P43220 24-463 limits assumed): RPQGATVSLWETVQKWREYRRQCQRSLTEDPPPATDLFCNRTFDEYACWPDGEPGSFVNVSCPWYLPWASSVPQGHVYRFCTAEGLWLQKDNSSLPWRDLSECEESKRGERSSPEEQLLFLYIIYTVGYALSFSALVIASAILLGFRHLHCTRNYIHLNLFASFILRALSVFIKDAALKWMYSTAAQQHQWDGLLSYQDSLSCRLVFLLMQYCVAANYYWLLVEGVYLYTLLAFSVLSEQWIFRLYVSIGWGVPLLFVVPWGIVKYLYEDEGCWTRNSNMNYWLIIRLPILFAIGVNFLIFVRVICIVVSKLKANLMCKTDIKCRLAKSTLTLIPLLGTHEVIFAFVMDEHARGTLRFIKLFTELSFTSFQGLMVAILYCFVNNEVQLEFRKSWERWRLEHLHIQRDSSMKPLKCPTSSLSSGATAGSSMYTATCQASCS

Row | SMILES | EC50 (human GLP-IR [1]) [nM] | EC50 (human GLP-IR [2]) [nM]
1 | CC[C@H](C)[C@H](NC(=O)[C@H](Cc1ccccc1)NC(=O)[C@H](CCC(=O)O)NC(=O)[C@H](CCCCN)NC(=O)[C@H](C)NC(=O)[C@H](C)NC(=O)[C@H](CCC(N)=O)NC(=O)CNC(=O)[C@H](CCC(=O)O)NC(=O)[C@H](CC(C)C)NC(=O)[C@H](Cc1ccc(O)cc1)NC(=O)[C@H](CO)NC(=O)[C@H](CO)NC(=O)[C@@H](NC(=O)[C@H](CC(=O)O)NC(=O)[C@H](CO)NC(=O)[C@@H](NC(=O)[C@H](Cc1ccccc1)NC(=O)[C@@H](NC(=O)CNC(=O)[C@H](CCC(=O)O)NC(=O)CNC(=O)[C@H](Cc1c[nH]cn1)NC(=O)CN)[C@@H](C)O)[C@@H](C)O)C(C)C)C(=O)N[C@@H](C)C(=O)N[C@@H](Cc1c[nH]c2ccccc12)C(=O)N[C@@H](CC(C)C)C(=O)N[C@H](C(=O)N[C@@H](CCCCN)C(=O)NCC(=O)O)C(C)C [3166961#1, GHGEGTFTSDVSSYLEGQAAKEFIAWLVKG] | 0.205 | –
2 | CC[C@H](C)[C@H](NC(=O)[C@H](Cc1ccccc1)NC(=O)[C@H](CCC(=O)O)NC(=O)[C@H](CCCCN)NC(=O)[C@H](C)NC(=O)[C@H](C)NC(=O)[C@H](CCC(N)=O)NC(=O)CNC(=O)[C@H](CCC(=O)O)NC(=O)[C@H](CC(C)C)NC(=O)[C@H](Cc1ccc(O)cc1)NC(=O)[C@H](CO)NC(=O)[C@H](CO)NC(=O)[C@@H](NC(=O)[C@H](CC(=O)O)NC(=O)[C@H](CO)NC(=O)[C@@H](NC(=O)[C@H](Cc1ccccc1)NC(=O)[C@@H](NC(=O)CNC(=O)[C@H](CCC(=O)O)NC(=O)CNC(=O)[C@H](Cc1c[nH]cn1)NC(=O)[C@H](C)N)[C@@H](C)O)[C@@H](C)O)C(C)C)C(=O)N[C@@H](C)C(=O)N[C@@H](Cc1c[nH]c2ccccc12)C(=O)N[C@@H](CC(C)C)C(=O)N[C@H](C(=O)N[C@@H](CCCCN)C(=O)NCC(=O)O)C(C)C [3166749#1, AHGEGTFTSDVSSYLEGQAAKEFIAWLVKG] | – | 0.0669
3 | CC[C@H](C)[C@H](NC(=O)[C@H](Cc1ccccc1)NC(=O)[C@H](CCC(=O)O)NC(=O)[C@H](CCCCN)NC(=O)[C@H](C)NC(=O)[C@H](C)NC(=O)[C@H](CCC(N)=O)NC(=O)CNC(=O)[C@H](CCC(=O)O)NC(=O)[C@H](CC(C)C)NC(=O)[C@H](Cc1ccc(O)cc1)NC(=O)[C@H](CO)NC(=O)[C@H](CO)NC(=O)[C@@H](NC(=O)[C@H](CC(=O)O)NC(=O)[C@H](CO)NC(=O)[C@@H](NC(=O)[C@H](Cc1ccccc1)NC(=O)[C@@H](NC(=O)CNC(=O)[C@H](CCC(=O)O)NC(=O)CNC(=O)[C@H](Cc1c[nH]cn1)NC(=O)[C@@H](N)Cc1c[nH]cn1)[C@@H](C)O)[C@@H](C)O)C(C)C)C(=O)N[C@@H](C)C(=O)N[C@@H](Cc1c[nH]c2ccccc12)C(=O)N[C@@H](CC(C)C)C(=O)N[C@H](C(=O)N[C@@H](CCCCN)C(=O)NCC(=O)O)C(C)C [3166962#1, HHGEGTFTSDVSSYLEGQAAKEFIAWLVKG] | 0.363 | –

— patent US12465652B2 (AMGEN INC., priority 2017, dated 2025)
